In PubChem BioAssay (NCI):
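Here, GI50 denotes the concentration required for 50% inhibition of growth. TGI: concentration producing complete growth inhibition.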

Tests used:
Test in all cases: growth of human tumour cells (NCI), 384-well format
SF-539 CNS = system: SF-539 CNS
T-47D breast = system: T-47D breast
SF-295 CNS = system: SF-295 CNS
DU-145 prostate = system: DU-145 prostate
CCRF-CEM leukemia = system: CCRF-CEM leukemia
HS 578T breast = system: HS 578T breast
IGROV1 ovarian = system: IGROV1 ovarian
CAKI-1 renal = system: CAKI-1 renal
HL-60(TB) leukemia = system: HL-60(TB) leukemia
HCC-2998 colon = system: HCC-2998 colon
RPMI-8226 leukemia = system: RPMI-8226 leukemia
OVCAR-8 ovarian = system: OVCAR-8 ovarian
ACHN renal = system: ACHN renal

| Compound | TGI (SF-539 CNS) [µM] | GI50 (T-47D breast) [µM] | TGI (T-47D breast) [µM] | GI50 (SF-295 CNS) [µM] | TGI (SF-295 CNS) [µM] | GI50 (DU-145 prostate) [µM] | TGI (DU-145 prostate) [µM] | GI50 (CCRF-CEM leukemia) [µM] | TGI (CCRF-CEM leukemia) [µM] | GI50 (HS 578T breast) [µM] | TGI (HS 578T breast) [µM] | GI50 (IGROV1 ovarian) [µM] | TGI (IGROV1 ovarian) [µM] | GI50 (CAKI-1 renal) [µM] | TGI (CAKI-1 renal) [µM] | GI50 (HL-60(TB) leukemia) [µM] | TGI (HL-60(TB) leukemia) [µM] | GI50 (HCC-2998 colon) [µM] | TGI (HCC-2998 colon) [µM] | GI50 (RPMI-8226 leukemia) [µM] | further results |
| --- | --- | --- | --- | --- | --- | --- | --- | --- | --- | --- | --- | --- | --- | --- | --- | --- | --- | --- | --- | --- | --- |
| CC1(N)CCN(c2cnc(-c3cccc(Cl)c3Cl)c(N)n2)CC1 | 27.7 | 13.3 | 27.9 | 21.5 | > 55.2 | 47 | > 100 | 17 | 31.2 | 13.4 | 27.2 | 8.4 | 27 | 2.74 | 16.9 | 23.4 | 38.1 | 16 | 29.8 | 13.9 | GI50 (SF-539 CNS): 13.9 µM; TGI (RPMI-8226 leukemia): 28.9 µM; GI50 (OVCAR-8 ovarian): 27.9 µM; TGI (OVCAR-8 ovarian): > 100 µM; GI50 (ACHN renal): 10.5 µM; TGI (ACHN renal): 60.6 µM |
| NS(=O)(=O)NCCNc1nonc1C(=Nc1ccc(F)c(Br)c1)NO | > 100 | 23.9 | > 74.5 | 11.7 | > 78.6 | 48.2 | > 100 | 17.6 | 35.3 | 25.3 | 87.4 | 37.4 | > 100 | 5.66 | > 100 | 18.9 | 33.2 | 22.5 | 51.7 | 17.6 | TGI (RPMI-8226 leukemia): 35.2 µM; GI50 (OVCAR-8 ovarian): 46.9 µM; TGI (OVCAR-8 ovarian): > 100 µM; GI50 (ACHN renal): 36.6 µM; TGI (ACHN renal): > 100 µM |
